In test [1] the target is T1, TAS2R14 (Homo sapiens, UniProt Q9NYV8).
T1 construct: full-length cDNA, stably expressed in HEK293 cells with chimeric G16gust44 (G alpha 16 fused with 44 amino acids of gustducin)
T1 sequence (Q9NYV8 1-317): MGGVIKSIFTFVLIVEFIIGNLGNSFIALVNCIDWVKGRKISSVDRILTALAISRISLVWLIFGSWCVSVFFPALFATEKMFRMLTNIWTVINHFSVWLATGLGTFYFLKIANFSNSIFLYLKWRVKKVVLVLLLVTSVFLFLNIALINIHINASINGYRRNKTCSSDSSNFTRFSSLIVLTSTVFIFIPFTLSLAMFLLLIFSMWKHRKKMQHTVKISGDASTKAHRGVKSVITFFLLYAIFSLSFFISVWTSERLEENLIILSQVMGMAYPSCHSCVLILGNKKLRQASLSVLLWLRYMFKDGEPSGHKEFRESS
The test can be described thus: Fluo-4 calcium mobilization, HEK293-TAS2R14-G16gust44 cells. In kind it is cell-based. Background: A change in cytosolic calcium serves as a functional read-out for many receptors and channels.

Test [2] addresses T1, TAS2R14. Kind of test: Fluo-4 calcium mobilization, antagonist mode, HEK293-TAS2R14-G16gust44 cells. In kind it is cell-based. To be noted: in the presence of 10.0 μM aristolochic acid A as agonist, 37 °C, 2.5 mM probenecid in loading buffer.

EC50 and IC50 data for three molecules are collected here from publication PMC5610306, “Identification of a specific agonist of human TAS2R14 from Radix Bupleuri through virtual screening, functional evaluation and binding studies” (Scientific Reports, 2017).

Read-outs that look alike come from different tables or passages of the source.

`COc1cccc2c1cc([N+](=O)[O-])c1c(C(=O)O)cc3c(c12)OCO3` [AAA, aristolochic acid A]: the EC50 in test [1] is 2 µM. As to `C[C@H]1O[C@@H](O[C@H]2CC[C@@]3(C)[C@@H](CC[C@]4(C)[C@@H]3C=CC3=C5CC(C)(C)CC[C@]5(CO)C(O)C[C@]34C)[C@]2(C)CO)[C@H](O)[C@@H](O[C@@H]2O[C@H](CO)[C@@H](O)[C@H](O)[C@H]2O)[C@H]1O` (stereo partly drawn) [SSb, Saikosaponin b], the EC50 in test [1] (read-out: EC50) came to 4.9 µM. Take sulfamoyl-benzoic acid [SBA]: the IC50 in test [2] is 18.5 µM.

In general, EC50 refers to the concentration needed to bring the measured effect to its halfway point. By IC50 is commonly meant the midpoint of a concentration-inhibition curve.
